# Results from PMC11247499, “2,8-Disubstituted-1,5-naphthyridines as Dual Inhibitors of Plasmodium falciparum Phosphatidylinositol-4-kinase and Hemozoin Formation with In Vivo Efficacy” (Journal of Medicinal Chemistry, 2024).
# Where “and” joins values, the source holds several entries; their conditions need not be identical. Equal entries are not always repeated. Where two headings read alike, the source gives them in different places.
# How the values were obtained:
# [1] = Solubility, miniaturized shake flask method; conditions: aqueous solution
# [2] = tested on: P. falciparum NF54 strain; assay: Antiplasmodial activity, parasite lactate dehydrogenase assay, NF54; type: cell-based, Plasmodium falciparum; conditions: Plasmodium falciparum, NF54, 72 h, parasite lactate dehydrogenase assay over 72 h; read-out: Pf IC50 ± SD NF54
# PvPI4K = PvPI4K (Plasmodium vivax, UniProt A5KB26); assay: biochemical; conditions: purified recombinant PvPI4K, 10 μM ATP, ADP-Glo; mean of N ≥ 2; read-out: PvPI4K IC50 ± SD
# PvPI4K, sequence (A5KB26 entry or part of it): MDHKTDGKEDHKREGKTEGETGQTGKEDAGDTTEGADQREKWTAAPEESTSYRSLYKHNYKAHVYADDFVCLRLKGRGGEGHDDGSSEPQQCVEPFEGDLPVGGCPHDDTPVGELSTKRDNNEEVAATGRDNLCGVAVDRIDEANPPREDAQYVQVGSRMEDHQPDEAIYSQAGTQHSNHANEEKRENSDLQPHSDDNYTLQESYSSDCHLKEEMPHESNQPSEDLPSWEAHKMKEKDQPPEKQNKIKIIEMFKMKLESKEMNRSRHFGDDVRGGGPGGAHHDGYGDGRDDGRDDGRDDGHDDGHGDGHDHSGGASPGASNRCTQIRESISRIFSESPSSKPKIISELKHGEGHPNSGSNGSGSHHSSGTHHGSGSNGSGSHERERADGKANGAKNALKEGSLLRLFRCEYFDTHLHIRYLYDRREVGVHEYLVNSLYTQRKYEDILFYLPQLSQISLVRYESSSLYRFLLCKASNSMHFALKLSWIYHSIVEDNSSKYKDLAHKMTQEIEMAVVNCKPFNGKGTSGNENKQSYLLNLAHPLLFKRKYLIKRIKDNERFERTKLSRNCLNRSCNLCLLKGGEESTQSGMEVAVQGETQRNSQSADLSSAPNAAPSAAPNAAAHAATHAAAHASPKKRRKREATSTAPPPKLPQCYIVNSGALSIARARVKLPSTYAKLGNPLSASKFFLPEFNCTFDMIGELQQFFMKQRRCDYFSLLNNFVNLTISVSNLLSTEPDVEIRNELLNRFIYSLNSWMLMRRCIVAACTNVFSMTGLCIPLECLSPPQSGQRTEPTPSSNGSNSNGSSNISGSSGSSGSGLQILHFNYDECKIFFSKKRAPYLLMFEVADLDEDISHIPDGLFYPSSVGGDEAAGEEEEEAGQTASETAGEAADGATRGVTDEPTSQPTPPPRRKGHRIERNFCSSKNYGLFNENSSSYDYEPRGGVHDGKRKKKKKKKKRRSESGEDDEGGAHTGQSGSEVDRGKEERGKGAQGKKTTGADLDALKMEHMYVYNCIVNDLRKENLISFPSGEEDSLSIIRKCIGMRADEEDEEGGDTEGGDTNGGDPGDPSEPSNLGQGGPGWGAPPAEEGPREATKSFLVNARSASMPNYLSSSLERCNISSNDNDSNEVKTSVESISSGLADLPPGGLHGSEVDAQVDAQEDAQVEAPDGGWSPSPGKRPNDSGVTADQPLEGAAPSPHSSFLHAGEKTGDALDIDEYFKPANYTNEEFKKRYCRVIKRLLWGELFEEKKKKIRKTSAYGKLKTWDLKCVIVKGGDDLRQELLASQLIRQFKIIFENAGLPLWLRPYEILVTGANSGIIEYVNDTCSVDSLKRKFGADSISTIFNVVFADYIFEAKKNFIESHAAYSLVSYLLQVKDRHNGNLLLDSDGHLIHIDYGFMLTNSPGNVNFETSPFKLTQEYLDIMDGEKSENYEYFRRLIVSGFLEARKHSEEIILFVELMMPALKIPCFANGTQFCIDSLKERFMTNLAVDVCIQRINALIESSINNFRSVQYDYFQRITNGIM
# [3] = tested on: Chinese Hamster Ovary (CHO) cell line; assay: cells; type: cell-based; conditions: Cricetulus griseus, CHO; MTT assay over 48h; read-out: CHO IC50
# [4] = tested on: multidrug-resistant strain, K1; assay: Antiplasmodial activity, parasite lactate dehydrogenase assay, K1; type: cell-based, Plasmodium falciparum; conditions: Plasmodium falciparum, K1, 72 h, parasite lactate dehydrogenase assay over 72 h; read-out: Pf IC50 ± SD K1
# β-hematin (βH) formation = assay: NP-40 mediated cell-free β-hematin assay; conditions: read-out: β-hematin IC50
# [5] = cell-free NP-40 detergent-mediated assay, n = 2
IC50 (β-hematin (βH) formation) [µM],SMILES,solubility at 20 h [1] [µM],IC50 [2] [µM],IC50 (PvPI4K) [µM],IC50 [3] [µM],IC50 [4] [µM],IC50 (β-hematin (βH) formation; [5])
,"CC1CNCCC1Nc1ccnc2ccc(-c3ccc(C(F)(F)F)nc3)nc12 (centres unmarked) [Compound 24, N-(3-Methylpiperidin-4-yl)-6-[6-(trifluoromethyl)pyridin-3-yl]-1,5-naphthyridin-4-amine]",195,0.05 ± 0.025,0.131 ± 0.089,47,0.104 ± 0.009,
,"CC(=O)N[C@@H]1CCN(c2ccnc3ccc(-c4cccc(S(C)(=O)=O)c4)nc23)C1 [Compound 10, N-[(3R)-1-[6-(3-Methylsulfonylphenyl)-1,5-naphthyridin-4-yl]pyrrolidin-3-yl]acetamide]",185,0.89 ± 0.057,0.076 ± 0.006,,,
,"CN1CCC(Nc2ccnc3ccc(-c4ccc(OCCCO)nc4)nc23)CC1 [Compound 35, 3-[5-[8-[(1-Methylpiperidin-4-yl)amino]-1,5-naphthyridin-2-yl]pyridin-2-yl]oxypropan-1-ol]",200,0.203 ± 0.006,0.019 ± 0.012,> 50,0.462 ± 0.052,> 200 µM
,"Cc1nc(C(F)(F)F)ccc1-c1ccc2nccc(NC3CCN(C)CC3)c2n1 [Compound 31, N-(1-Methylpiperidin-4-yl)-6-[2-methyl-6-(trifluoromethyl)pyridin-3-yl]-1,5-naphthyridin-4-amine]",195,0.499 ± 0.024,0.174 ± 0.102,> 50,0.367 ± 0.005,
,"CN1CCC(Nc2ccnc3ccc(-c4ccc(C#N)nc4)nc23)CC1 [Compound 32, 5-[8-[(1-Methylpiperidin-4-yl)amino]-1,5-naphthyridin-2-yl]pyridine-2-carbonitrile]",200,0.16 ± 0.04,0.676 ± 0.023,> 50,0.73 ± 0.053,51 ± 2 µM
,"FC(F)(F)c1ccc(-c2ccc3nccc(NCC4CCNCC4)c3n2)cn1 [Compound 20, N-(Piperidin-4-ylmethyl)-6-[6-(trifluoromethyl)pyridin-3-yl]-1,5-naphthyridin-4-amine]",190,0.065 ± 0.002,1.51 ± 0.643,> 50,0.35 ± 0.004,37 µM and < 60 µM
,"FC(F)(F)c1ccc(-c2ccc3nccc(OC4CCNCC4)c3n2)cn1 [Compound 19, 8-Piperidin-4-yloxy-2-[6-(trifluoromethyl)pyridin-3-yl]-1,5-naphthyridine]",,3.85 ± 0.954,0.265 ± 0.16,,,94 ± 3 µM
,"CN1CCC(Nc2ccnc3ccc(-c4cccnc4)nc23)CC1 [Compound 29, N-(1-Methylpiperidin-4-yl)-6-pyridin-3-yl-1,5-naphthyridin-4-amine]",195,0.526 ± 0.047,0.064 ± 0.014,> 50,1.28 ± 0.148,
,"CS(=O)(=O)c1cccc(-c2ccc3nccc(N4CC[C@@H](N)C4)c3n2)c1 [Compound 9, (3R)-1-[6-(3-Methylsulfonylphenyl)-1,5-naphthyridin-4-yl]pyrrolidin-3-amine]",200,0.1 ± 0.005,0.199 ± 0.037,22,,
,"CS(=O)(=O)c1cccc(-c2ccc3nccc(N4CC[C@@H](NC(N)=O)C4)c3n2)c1 [Compound 11, [(3R)-1-[6-(3-Methylsulfonylphenyl)-1,5-naphthyridin-4-yl]pyrrolidin-3-yl]urea]",,0.63 ± 0.133,0.039 ± 0.007,,,
,"FC(F)(F)c1ccc(-c2ccc3nccc(N[C@H]4CCNC4)c3n2)cn1 [Compound 15, N-[(3S)-Pyrrolidin-3-yl]-6-[6-(trifluoromethyl)pyridin-3-yl]-1,5-naphthyridin-4-amine]",200,0.07 ± 0.013,0.164 ± 0.069,46,,
21 ± 2.1,"CCN(CC)CCCC(C)Nc1ccnc2cc(Cl)ccc12 (centres unmarked) [Chloroquine, reference compound]",,,,,,
